# Earlier results as cited in patent US20150283090A1, “USE OF SILICON OXIDE-BASED MATERIAL FOR THE MODIFIED RELEASE OF BIOLOGICALLY ACTIVE AGENTS” (MERCK PATENT GMBH, priority 2012, published 2015).
# Like-named read-outs stand apart in the source and are kept apart here.
# Legend:
# [1] = C1 silylation of MCM-41
# [2] = MCM-48 and LP-la3d, pore sizes 3.6 and 5.7 nm, modified with C8 and C18 hydrocarbon chains
# [3] = silica hybrid gels with methyl or propyl functionalization
smiles,measurement,setting,value
C[C@H](CS)C(=O)N1CCC[C@H]1C(=O)O [Captopril],release rate,[1],decrease of release rate of Captopril with increasing degree of C1 silylation
CC(C)Cc1ccc(C(C)C(=O)O)cc1 (centres unmarked) [ibuprofen],delivery rates,[2],decrease of delivery rates when the surface of the material is modified
OCCN(CCO)c1nc(N2CCCCC2)c2nc(N(CCO)CCO)nc(N3CCCCC3)c2n1 [persantin],drug release,[3],inhibition of drug release with an increasing number of methyl or propyl functionalization
CN[C@H](CC(C)C)C(=O)N[C@H]1C(=O)N[C@@H](CC(N)=O)C(=O)N[C@H]2C(=O)N[C@H]3C(=O)N[C@H](C(=O)N[C@H](C(=O)O)c4cc(O)cc(O)c4-c4cc3ccc4O)[C@H](O)c3ccc(c(Cl)c3)Oc3cc2cc(c3O[C@@H]2O[C@H](CO)[C@@H](O)[C@H](O)[C@H]2O[C@H]2C[C@](C)(N)[C@H](O)[C@H](C)O2)Oc2ccc(cc2Cl)[C@H]1O [vancomycin],release kinetics of vancomycin from SBA-15,after functionalizing with octylmethoxysilane (C8),0.068 min-½
same,release kinetics of vancomycin from SBA-15,non-functionalized material,0.890 min-½
